Results as given in ChEMBL document CHEMBL1141234, “Synthesis and SAR of highly potent dual 5-HT1A and 5-HT1B antagonists as potential antidepressant drugs” (Bioorg Med Chem Lett, 2005).
The source made the active and inactive calls. The calls are words filed in the database; no cut-off is given here.

How the values were obtained:
[1] = target: T1, Adrenergic receptor alpha-1 (Homo sapiens, UniProt P35348+P25100+P35368); experiment: Inhibitory activity against Adrenergic alpha-1 receptor; format: protein assay
T1 sequence (P35348 whole entry): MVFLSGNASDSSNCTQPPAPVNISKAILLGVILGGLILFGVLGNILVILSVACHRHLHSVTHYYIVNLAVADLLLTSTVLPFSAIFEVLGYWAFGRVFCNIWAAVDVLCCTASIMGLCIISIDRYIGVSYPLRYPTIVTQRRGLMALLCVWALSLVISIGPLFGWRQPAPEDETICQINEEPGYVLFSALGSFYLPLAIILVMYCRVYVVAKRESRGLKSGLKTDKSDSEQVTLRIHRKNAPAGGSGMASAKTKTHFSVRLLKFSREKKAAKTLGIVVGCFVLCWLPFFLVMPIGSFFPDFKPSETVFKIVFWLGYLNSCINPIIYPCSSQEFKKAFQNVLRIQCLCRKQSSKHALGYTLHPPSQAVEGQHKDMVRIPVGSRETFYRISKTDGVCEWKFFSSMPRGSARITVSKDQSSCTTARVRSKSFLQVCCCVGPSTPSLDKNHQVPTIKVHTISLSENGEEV
T1 sequence (P25100 whole entry): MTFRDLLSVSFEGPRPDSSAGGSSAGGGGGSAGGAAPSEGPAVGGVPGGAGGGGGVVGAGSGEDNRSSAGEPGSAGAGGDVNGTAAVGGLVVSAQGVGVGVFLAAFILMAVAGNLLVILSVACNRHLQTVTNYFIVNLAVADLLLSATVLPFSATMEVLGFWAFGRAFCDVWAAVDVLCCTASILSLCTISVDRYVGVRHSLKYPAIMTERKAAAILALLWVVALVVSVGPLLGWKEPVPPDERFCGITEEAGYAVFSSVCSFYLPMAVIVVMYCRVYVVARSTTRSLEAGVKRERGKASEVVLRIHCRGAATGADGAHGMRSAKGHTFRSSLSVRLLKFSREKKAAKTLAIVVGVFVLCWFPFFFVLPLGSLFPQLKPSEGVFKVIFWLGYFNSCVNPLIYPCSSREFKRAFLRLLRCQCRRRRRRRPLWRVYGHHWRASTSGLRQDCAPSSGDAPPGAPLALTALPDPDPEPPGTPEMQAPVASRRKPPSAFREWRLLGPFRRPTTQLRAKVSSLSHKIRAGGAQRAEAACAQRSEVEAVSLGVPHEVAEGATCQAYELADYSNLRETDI
T1 sequence (P35368 whole entry): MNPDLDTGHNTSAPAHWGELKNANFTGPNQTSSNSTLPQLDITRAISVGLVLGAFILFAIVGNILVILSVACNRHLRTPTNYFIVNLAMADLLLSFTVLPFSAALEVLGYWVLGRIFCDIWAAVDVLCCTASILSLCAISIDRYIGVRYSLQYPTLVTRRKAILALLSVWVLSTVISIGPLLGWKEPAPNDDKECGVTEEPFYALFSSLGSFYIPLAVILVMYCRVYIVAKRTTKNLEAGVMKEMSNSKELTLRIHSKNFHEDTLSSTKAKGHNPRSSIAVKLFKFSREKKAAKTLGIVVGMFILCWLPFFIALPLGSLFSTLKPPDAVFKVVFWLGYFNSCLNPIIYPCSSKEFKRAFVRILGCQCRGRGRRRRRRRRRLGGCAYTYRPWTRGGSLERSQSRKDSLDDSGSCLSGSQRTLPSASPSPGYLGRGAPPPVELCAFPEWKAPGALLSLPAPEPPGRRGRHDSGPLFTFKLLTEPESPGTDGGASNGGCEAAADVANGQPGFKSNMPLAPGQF

[2] = target: T2, 5-hydroxytryptamine receptor 1A (Homo sapiens) (UniProt P08908); experiment: Intrinsic activity for 5HT1A receptor in [35S]GTP-gamma-S assay; format: functional
T2 sequence (whole entry): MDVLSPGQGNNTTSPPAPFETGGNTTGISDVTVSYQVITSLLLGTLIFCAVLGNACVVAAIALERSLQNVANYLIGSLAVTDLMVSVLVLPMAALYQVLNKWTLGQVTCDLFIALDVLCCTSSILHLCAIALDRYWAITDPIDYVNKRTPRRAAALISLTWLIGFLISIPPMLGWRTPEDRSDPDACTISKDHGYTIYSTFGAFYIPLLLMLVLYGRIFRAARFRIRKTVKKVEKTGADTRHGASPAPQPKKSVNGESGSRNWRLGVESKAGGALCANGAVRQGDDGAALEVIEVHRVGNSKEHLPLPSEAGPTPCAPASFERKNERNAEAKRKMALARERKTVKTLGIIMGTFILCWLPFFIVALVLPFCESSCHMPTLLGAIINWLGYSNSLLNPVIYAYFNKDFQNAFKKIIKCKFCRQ

[3] = target: Sodium-dependent dopamine transporter (Homo sapiens) (UniProt Q01959); experiment: Inhibitory activity against DAT upto 10 uM
Chain of Sodium-dependent dopamine transporter (Homo sapiens) (Q01959 whole entry): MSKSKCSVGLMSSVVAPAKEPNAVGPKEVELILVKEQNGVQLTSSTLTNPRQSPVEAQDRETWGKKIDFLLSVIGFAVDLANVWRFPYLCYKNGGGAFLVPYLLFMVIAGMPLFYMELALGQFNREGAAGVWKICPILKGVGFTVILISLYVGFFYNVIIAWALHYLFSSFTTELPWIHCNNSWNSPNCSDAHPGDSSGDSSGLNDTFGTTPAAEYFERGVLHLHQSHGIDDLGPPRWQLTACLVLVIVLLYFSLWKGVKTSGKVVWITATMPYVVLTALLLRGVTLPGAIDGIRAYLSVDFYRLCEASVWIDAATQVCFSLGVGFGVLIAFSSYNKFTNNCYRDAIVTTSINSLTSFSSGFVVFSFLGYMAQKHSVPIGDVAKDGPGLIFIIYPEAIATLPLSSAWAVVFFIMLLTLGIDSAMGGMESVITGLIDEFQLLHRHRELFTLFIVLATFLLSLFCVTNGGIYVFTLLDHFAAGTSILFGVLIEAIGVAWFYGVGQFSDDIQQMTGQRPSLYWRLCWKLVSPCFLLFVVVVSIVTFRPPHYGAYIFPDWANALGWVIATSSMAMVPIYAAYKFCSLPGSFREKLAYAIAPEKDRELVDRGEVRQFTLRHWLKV

[4] = target: 5-hydroxytryptamine receptor 5A (Homo sapiens, UniProt P47898); experiment: Inhibitory activity against 5HT5A receptor
Chain of 5-hydroxytryptamine receptor 5A (P47898 whole entry): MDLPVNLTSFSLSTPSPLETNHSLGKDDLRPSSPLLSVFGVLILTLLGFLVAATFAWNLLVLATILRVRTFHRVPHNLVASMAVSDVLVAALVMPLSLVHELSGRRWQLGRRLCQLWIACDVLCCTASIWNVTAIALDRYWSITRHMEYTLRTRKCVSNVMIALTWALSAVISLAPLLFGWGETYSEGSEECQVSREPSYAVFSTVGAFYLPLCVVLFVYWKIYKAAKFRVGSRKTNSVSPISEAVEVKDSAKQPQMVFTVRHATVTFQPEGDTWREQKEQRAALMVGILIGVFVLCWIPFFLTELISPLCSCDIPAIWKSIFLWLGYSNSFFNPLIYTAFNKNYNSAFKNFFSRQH

[5] = target: T3, 5-hydroxytryptamine receptor 1A (Homo sapiens, UniProt P08908); experiment: Displacement of [35S]GTP-gamma-S from human recombinant 5HT1A receptor; format: functional
T3 sequence (P08908 whole entry): T2 sequence (whole entry)

CN1CCc2c(sc3ncn(CCN4CCN(c5cncc6ccccc56)CC4)c(=O)c23)C1
Ki [1]: 13.7 nM | Emax [2]: 4% | Activity [3]: inactive | Ki [4]: > 10000 nM | IC50 [5]: 316 nM | Ki [5]: 4.7 nM
